Measurements reported in patent publication US10426842B2, “Targeted nanoparticle conjugate and method for co-delivery of siRNA and drug” (The Curators of the University of Missouri, priority 2015, dated 2019).

Key:
[1] = test system: H23 human adenocarcinoma non-small cell lung cancer cells
Method: Considering downregulation of downstream-phosphorylated proteins, the cell viability of H23 cells (MTT assay) after knocking down the RAS pathway was then investigated.
(Thermo Scientific, USA). For determining in vitro cytotoxicity, the MTT assay was performed by incubating various samples including the nanoparticle of interest on H23 and A549 cells.
Each sample was analyzed in triplicate. After 24 hours of incubation, 10 μl of MTT solution (ATCC, USA) was added and the plate was incubated at 37° C. for 4 hours. Crystals formed were dissolved in 100 μl solubilizing buffer and the plates were kept at 25° C. for 2 hours. The intensity of the color developed after addition of the solubilizing buffer was measured using Biotek Cytation 3 spectrophotometer at 570 nm.
Viability of the cells transfected with various samples was then calculated by considering the untreated cells as 100% viable.

[2] = test system: SHP2, pSHP2 (Y542), pSHP2 (Y580) in KRAS mutated H23 cells; test: Western blot and densitometry for SHP2 and phospho-SHP2
Method: The Western blot analysis was performed as follows. Cells were seeded at a density of 1×10^6 cells/ml and incubated for overnight at 37° C. in 5% CO2 atmosphere. Nanoparticle and relevant control samples were incubated in serum free media for the period of 72 hrs. […] Whole-cell lysates were prepared using Triton X 100 lysis buffer with MS-SAFE protease and phosphatase cocktail inhibitor (Sigma-Aldrich) and the protein concentration was equalized by Bicinchoninic acid assay (Sigma-Aldrich).
Membranes were incubated with primary antibody overnight, were washed and incubated with secondary antibody. Primary antibodies used for western blotting are rabbit polyclonal anti-β-actin, rabbit monoclonal anti-AKT, rabbit monoclonal anti-phospho-AKT, rabbit polyclonal anti-MEK1/2, rabbit polyclonal anti-phospho-MEK1/2, rabbit monoclonal anti-EGFR, rabbit monoclonal anti-phospho-EGFR, rabbit monoclonal anti-SHP2, rabbit polyclonal anti-phospho-SHP2 (Tyr542), rabbit polyclonal anti-phospho-SHP2 (Tyr580), rabbit monoclonal anti-phospho-GAB1 (Tyr627), rabbit polyclonal anti-phospho-GAB1 (Tyr307), all from Cell Signaling and mouse monoclonal anti-KRAS from Santa Cruz Biotech. […] Protein expression levels were quantified by densitometry analysis.

[3] = test system: NT5E (CD73) gene expression in H23 cells; test: Quantitative real-time RT-PCR of NT5E (CD73); format: cell-based, human; details: relative to untreated, 18sRNA reference
Method: (§1) The effect of the oncogene knockdown on gene expression of DUSP6 and NT5E genes were observed by quantitative real-time RT-PCR. Initially H23 cells (1×10^6 cells/well) were treated with 4 samples including untreated, GelNP-Ab, GelNP-Ab-siRNA and siRNA (transfection agent). RNA was extracted through standard RNA extraction protocol. cDNA was synthesized from RNA extracted from the treated cells. The quality and the concentration of the extracted RNA was determined using bioanalyzer. 18sRNA was used as an reference gene (housekeeping gene) for data normalization. Primers and probes for all genes were purchased from Integrated DNA Technologies (IDT). PCR was performed in a reaction volume of 20 μl containing 2 μl cDNA using the Gene Amp 7700 Sequence Detection System. The comparative Ct protocol was followed to determine the relative expression levels.

[4] = test system: DUSP6 gene expression in H23 cells; test: Quantitative real-time RT-PCR of DUSP6; format: cell-based, human; details: relative to untreated, 18sRNA reference
Method: In this inquiry, quantitative real time PCR was performed to examine dual specificity phosphatase 6 (DUSP6) and CD73 gene expression levels.
as §1

Substance: transfected siRNA: KRAS G12C siRNA (SEQ ID NO. 1 annealed with SEQ ID NO. 2) delivered with transfecting agent (sense GUUGGAGCUUGUGGCGUAGUUUU; antisense AACUACGCCACAAGCUCCAACUU; disulfide moiety, further chemistry not given here)
- cytotoxicity / change in viability (in words) [1]: no toxicity
- cell survival post RAS oncogene knockdown ([1]; H23 cells, without gefitinib): 100%
- SHP2, pSHP2 (Y542) and pSHP2 (Y580) level ([2]; in the presence of gefitinib): significant downregulation
- SHP2, pSHP2 (Y542) and pSHP2 (Y580) level ([2]; without gefitinib): did not show any effect
- CD73 (NT5E) RF value (real time qPCR) [3]: 1.07
- RF value of DUSP6 (real time qPCR) [4]: 0.1
